Results on 17 molecules are retold here after patent US9580416B2, “Inhibitors of Bruton's tyrosine kinase” (PHARMACYCLICS LLC, priority 2014, dated 2017).

Type in all cases: biochemical
The target in assay [1] is T1, JAK3 (Homo sapiens, UniProt P52333).
T1 sequence (P52333 1-1124): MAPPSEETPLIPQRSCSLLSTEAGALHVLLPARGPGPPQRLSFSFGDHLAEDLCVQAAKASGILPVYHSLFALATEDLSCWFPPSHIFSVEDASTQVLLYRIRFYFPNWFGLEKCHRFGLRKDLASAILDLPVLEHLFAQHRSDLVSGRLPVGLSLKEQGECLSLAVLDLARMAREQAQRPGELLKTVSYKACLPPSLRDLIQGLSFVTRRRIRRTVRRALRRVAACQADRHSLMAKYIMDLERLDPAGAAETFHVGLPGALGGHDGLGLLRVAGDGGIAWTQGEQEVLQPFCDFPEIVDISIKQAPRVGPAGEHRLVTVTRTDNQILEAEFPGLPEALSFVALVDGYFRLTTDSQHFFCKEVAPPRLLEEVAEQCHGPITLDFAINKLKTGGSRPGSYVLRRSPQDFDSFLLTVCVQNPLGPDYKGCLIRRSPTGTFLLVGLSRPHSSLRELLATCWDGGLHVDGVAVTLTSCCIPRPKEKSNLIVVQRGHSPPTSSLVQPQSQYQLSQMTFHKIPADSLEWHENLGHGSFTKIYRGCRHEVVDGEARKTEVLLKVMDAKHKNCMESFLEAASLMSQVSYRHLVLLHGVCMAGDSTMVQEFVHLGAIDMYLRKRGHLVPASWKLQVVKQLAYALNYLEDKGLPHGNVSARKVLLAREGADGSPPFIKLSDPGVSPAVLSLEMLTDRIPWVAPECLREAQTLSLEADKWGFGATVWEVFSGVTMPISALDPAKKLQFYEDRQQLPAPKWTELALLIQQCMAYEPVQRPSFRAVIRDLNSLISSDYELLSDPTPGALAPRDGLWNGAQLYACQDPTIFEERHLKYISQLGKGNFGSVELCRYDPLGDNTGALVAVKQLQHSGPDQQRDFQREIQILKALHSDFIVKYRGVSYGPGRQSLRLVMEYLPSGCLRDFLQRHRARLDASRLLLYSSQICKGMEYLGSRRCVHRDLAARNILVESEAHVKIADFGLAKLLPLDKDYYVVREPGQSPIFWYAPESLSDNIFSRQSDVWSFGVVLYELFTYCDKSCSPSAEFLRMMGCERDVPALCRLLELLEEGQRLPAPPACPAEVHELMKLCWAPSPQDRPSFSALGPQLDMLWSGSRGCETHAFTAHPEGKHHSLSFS
As to the kind of experiment: Inhibition of a panel of kinases, in vitro HotSpot kinase assay: JAK3. As for the experimental part: (§1) The degree of inhibition of a panel of kinases is determined using the in vitro HotSpot kinase assay (purified enzymes, ^33P-ATP, an appropriate substrate and 1 uM ATP).

Assay [2] addresses Btk (Homo sapiens, UniProt Q06187). Briefly: Btk kinase activity, TR-FRET assay. Particulars: read-out: Btk (IC50). Summed up: (§2)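 Enzyme (Btk 0.5 nM; Lck 6 nM) reacted 1 h with inhibitor, ATP at Km and biotin-peptide substrate in pH 7.4 buffer, 10% DMSO. Phosphopeptide detected by Eu-p-Tyr100 antibody plus streptavidin-APC (665/615 nm). IC50 calculated from fitted Ki(app) via ATP/Km correction plus half total enzyme.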

Assay [3] addresses EGFR (Homo sapiens, UniProt P00533). As to the kind of experiment: Inhibition of a panel of kinases, in vitro HotSpot kinase assay: EGFR. As for the experimental part: as §1
Assay [4] has as its target Lck (Homo sapiens, UniProt P06239). Briefly: Lck kinase activity, TR-FRET assay. The following applies: read-out: LCK (IC50). The procedure, abridged: as §2

Chain of Lck (P06239 whole entry, species assumed): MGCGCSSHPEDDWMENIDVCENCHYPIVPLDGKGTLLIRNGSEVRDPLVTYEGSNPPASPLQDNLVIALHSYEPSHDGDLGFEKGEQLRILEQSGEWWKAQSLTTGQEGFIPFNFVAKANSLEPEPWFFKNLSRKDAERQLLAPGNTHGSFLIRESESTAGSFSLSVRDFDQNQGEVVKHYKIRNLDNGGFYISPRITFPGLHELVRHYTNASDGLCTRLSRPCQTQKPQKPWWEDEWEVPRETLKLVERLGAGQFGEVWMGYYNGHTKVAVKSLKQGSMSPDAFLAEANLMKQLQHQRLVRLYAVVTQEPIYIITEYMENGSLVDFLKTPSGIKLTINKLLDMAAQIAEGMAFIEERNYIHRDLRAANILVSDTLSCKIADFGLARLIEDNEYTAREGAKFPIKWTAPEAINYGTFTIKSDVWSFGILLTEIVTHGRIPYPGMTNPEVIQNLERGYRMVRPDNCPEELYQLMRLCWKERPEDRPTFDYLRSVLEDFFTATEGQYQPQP
Chain of EGFR (P00533 25-1210): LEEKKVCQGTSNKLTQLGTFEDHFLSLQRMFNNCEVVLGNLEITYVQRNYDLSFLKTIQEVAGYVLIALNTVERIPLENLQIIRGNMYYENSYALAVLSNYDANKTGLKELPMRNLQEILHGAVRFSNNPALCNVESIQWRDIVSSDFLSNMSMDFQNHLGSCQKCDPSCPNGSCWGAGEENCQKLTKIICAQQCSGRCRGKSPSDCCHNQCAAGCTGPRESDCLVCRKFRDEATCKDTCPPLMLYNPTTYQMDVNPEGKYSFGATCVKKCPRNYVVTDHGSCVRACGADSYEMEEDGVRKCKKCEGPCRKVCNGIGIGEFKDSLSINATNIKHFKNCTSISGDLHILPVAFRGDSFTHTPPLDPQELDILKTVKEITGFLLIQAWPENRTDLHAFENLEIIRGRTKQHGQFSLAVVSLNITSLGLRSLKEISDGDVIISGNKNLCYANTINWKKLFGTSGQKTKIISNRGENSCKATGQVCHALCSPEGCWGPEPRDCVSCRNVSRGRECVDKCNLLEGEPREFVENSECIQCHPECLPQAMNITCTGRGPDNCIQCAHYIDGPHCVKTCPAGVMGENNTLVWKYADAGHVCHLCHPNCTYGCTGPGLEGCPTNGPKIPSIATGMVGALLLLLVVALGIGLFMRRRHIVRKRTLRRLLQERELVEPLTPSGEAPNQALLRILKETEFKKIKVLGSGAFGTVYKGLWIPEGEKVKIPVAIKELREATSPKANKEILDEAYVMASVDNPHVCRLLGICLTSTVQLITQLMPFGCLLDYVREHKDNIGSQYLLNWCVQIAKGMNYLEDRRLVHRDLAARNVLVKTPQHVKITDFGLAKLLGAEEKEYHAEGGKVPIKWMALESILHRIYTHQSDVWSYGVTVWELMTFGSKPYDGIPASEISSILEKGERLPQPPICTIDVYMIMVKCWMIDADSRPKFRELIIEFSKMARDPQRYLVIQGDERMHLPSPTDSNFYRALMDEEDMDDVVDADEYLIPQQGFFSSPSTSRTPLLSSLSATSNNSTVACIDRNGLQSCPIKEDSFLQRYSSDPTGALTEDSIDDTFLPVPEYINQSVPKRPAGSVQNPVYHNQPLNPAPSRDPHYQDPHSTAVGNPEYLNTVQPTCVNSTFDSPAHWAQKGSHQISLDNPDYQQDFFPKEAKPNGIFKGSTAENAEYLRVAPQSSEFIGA
Chain of Btk (Q06187 whole entry): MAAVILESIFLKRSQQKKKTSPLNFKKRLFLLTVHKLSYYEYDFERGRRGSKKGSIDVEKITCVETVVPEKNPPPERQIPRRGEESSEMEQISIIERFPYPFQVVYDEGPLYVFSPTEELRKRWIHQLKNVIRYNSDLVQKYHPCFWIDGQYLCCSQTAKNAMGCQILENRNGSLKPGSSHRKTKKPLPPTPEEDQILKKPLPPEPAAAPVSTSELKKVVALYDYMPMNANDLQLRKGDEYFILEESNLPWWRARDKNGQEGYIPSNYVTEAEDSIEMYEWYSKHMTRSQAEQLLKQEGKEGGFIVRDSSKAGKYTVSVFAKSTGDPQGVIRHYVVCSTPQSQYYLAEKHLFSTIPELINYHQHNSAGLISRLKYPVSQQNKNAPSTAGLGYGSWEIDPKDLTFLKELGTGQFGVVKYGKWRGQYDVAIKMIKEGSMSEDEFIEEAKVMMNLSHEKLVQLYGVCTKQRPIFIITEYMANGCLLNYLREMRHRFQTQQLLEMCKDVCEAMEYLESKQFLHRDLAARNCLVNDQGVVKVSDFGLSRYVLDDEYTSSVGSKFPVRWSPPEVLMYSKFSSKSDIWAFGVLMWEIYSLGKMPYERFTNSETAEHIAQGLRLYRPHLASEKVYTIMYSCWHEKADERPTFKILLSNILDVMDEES

As to `CN1CCC(C(=O)N2CC[C@@H](Nc3n[nH]c4nccc(Oc5ccc(C(=O)Nc6cc(C(F)(F)F)ccn6)cc5)c34)C2)CC1` [compound 199, 4-[(3-{[1-(1-methylpiperidin-4-carbonyl)pyrrolidin-3-yl]amino}-1H-pyrazolo[3,4-b]pyridin-4-yl)oxy]-N-[4-(trifluoromethyl)pyridin-2-yl]benzamide], the IC50 is greater than 10 µM in assay [1], less than 100 nM in assay [2], 0.1 to 1 µM in assay [3] and 0.1 to 1 µM in assay [4].

For the molecule `CCNC(=O)N[C@H]1CCCN(c2n[nH]c3nccc(Oc4ccc(C(=O)Nc5cc(C(F)(F)F)ccn5)cc4)c23)C1` [compound 234, 4-({3-[(3S)-3-[(ethylcarbamoyl)amino]piperidin-1-yl]-1H-pyrazolo[3,4-b]pyridin-4-yl}oxy)-N-[4-(trifluoromethyl)pyridin-2-yl]benzamide], the IC50 in assay [1] was greater than 10 µM; in assay [2] it was 100 to 1000 nM; in assay [3], greater than 10 µM; in assay [4], greater than 10 µM.

In the case of `Cc1ccnc(NC(=O)c2ccc(Oc3ccnc4[nH]nc(N[C@@H]5CCCN(C(=O)[C@@H]6CCCO6)C5)c34)cc2)c1` [compound 117, N-(4-methylpyridin-2-yl)-4-[(3-{[(3R)-1-[(2S)-oxolane-2-carbonyl]piperidin-3-yl]amino}-1H-pyrazolo[3,4-b]pyridin-4-yl)oxy]benzamide], the IC50 in assay [1] is 1 to 10 µM; in assay [2], less than 100 nM; in assay [3] it was greater than 10 µM; in assay [4] it was greater than 10 µM.

As to `Cc1cnc(NC(=O)c2ccc(Oc3ccnc4[nH]nc(C5CCCN(C(=O)C6CCN(C)CC6)C5)c34)cc2)s1` (centres unmarked) [compound 217, N-(5-methyl-1,3-thiazol-2-yl)-4-({3-[1-(1-methylpiperidine-4-carbonyl)piperidin-3-yl]-1H-pyrazolo[3,4-b]pyridin-4-yl}oxy)benzamide], the IC50 was greater than 10 µM in assay [1], 100 to 1000 nM in assay [2], 1 to 10 µM in assay [3] and 1 to 10 µM in assay [4].

For the molecule `CC1(C(=O)N2CCC[C@@H](Nc3n[nH]c4nccc(Oc5ccc(C(=O)Nc6ccccn6)cc5)c34)C2)CCOCC1` [compound 112, 4-[(3-{[(3R)-1-(4-methyloxane-4-carbonyl)piperidin-3-yl]amino}-1H-pyrazolo[3,4-b]pyridin-4-yl)oxy]N-(pyridin-2-yl)benzamide], the IC50 is greater than 10 µM in assay [1], less than 100 nM in assay [2], greater than 10 µM in assay [3] and 1 to 10 µM in assay [4].

Consider `COCC#CC(=O)N1CCC[C@@H](Nc2n[nH]c3nccc(Oc4ccc(C(=O)Nc5cc(C)ccn5)cc4)c23)C1` [compound 281, (R)-4-(3-(1-(4-methoxybut-2-ynoyl)piperidin-3-ylamino)-1H-pyrazolo[3,4-b]pyridin-4-yloxy)-N-(4-methylpyridin-2-yl)benzamide], for which the IC50 in assay [1] was 0.1 to 1 µM; in assay [2], less than 100 nM; in assay [3], 1 to 10 µM; in assay [4], 1 to 10 µM.

`CCC(=O)N1CCC[C@@H](Nc2n[nH]c3nccc(Oc4ccc(-c5nc6ccccc6[nH]5)cc4)c23)C1` [compound 231, 1-[(3R)-3-({4-[4-(1H-1,3-benzodiazol-2-yl)phenoxy]-1H-pyrazolo[3,4-b]pyridin-3-yl}amino)piperidin-1-yl]propan-1-one]: the IC50 was greater than 10 µM in assay [1], greater than 10000 nM in assay [2], greater than 10 µM in assay [3] and greater than 10 µM in assay [4].

Take `CCOP(=O)(CCC(=O)N1CCC[C@@H](Nc2n[nH]c3nccc(Oc4ccc(C(=O)Nc5cc(C)ccn5)cc4)c23)C1)OCC` [compound 273, (R)-diethyl 3-(3-(4-(4-(4-methylpyridin-2-ylcarbamoyl)phenoxy)-1H-pyrazolo[3,4-b]pyridin-3-ylamino)piperidin-1-yl)-3-oxopropylphosphonate]: the IC50 in assay [1] was greater than 10 µM; in assay [2], less than 100 nM; in assay [3], greater than 10 µM; in assay [4], 1 to 10 µM.

Consider `CCNC(=O)N1CCC[C@@H](Nc2n[nH]c3nccc(Oc4ccc(C(=O)Nc5nc6ccccc6s5)cc4)c23)C1` [compound 176], for which the half-inhibitory concentration (IC50) in assay [1] was 0.1 to 1 µM; in assay [2] it was less than 100 nM; in assay [3], greater than 10 µM; in assay [4], 0.1 to 1 µM.

With `O=C(Nc1cc(C(F)(F)F)ccn1)c1ccc(Oc2ccnc3[nH]nc(N[C@@H]4CCN(C(=O)C5CC5)C4)c23)cc1` [compound 215, 4-[(3-{[(3R)-1-cyclopropanecarbonylpyrrolidin-3-yl]amino}-1H-pyrazolo[3,4-b]pyridin-4-yl)oxy]-N-[4-(trifluoromethyl)pyridin-2-yl]benzamide], the IC50 in assay [1] was greater than 10 µM; in assay [2], less than 100 nM; in assay [3], greater than 10 µM; in assay [4], 1 to 10 µM.

Regarding `Cc1ccnc(NC(=O)c2ccc(Oc3ccnc4[nH]nc(N[C@@H]5CCCN(C(=O)c6ccccc6)C5)c34)cc2)c1` [compound 109, 4-[(3-{[(3R)-1-benzoylpiperidin-3-yl]amino}-1H-pyrazolo[3,4-b]pyridin-4-yl)oxy]-N-(4-methylpyridin-2-yl)benzamide], the IC50 was greater than 10 µM in assay [1], less than 100 nM in assay [2], greater than 10 µM in assay [3] and 1 to 10 µM in assay [4].

For the molecule `C=CC(=O)N1CCC[C@@H](Oc2n[nH]c3nccc(Nc4cccc(C(=O)Nc5ccc(C(C)C)c(C)c5)c4)c23)C1` [compound 132, N-[3-methyl-4-(propan-2-yl)phenyl]-3-[(3-{[(3R)-1-(prop-2-enoyl)piperidin-3-yl]oxy}-1H-pyrazolo[3,4-b]pyridin-4-yl)amino]benzamide], the IC50 was less than 0.1 µM in assay [1], less than 100 nM in assay [2], less than 0.1 µM in assay [3] and 1 to 10 µM in assay [4].

On to `Cc1cccc2nc(-c3ccc(Oc4ccnc5[nH]nc(N[C@@H]6CCCN(C(=O)C7CC7)C6)c45)cc3)oc12` [compound 220, (3R)-1-cyclopropanecarbonyl-N-{4-[4-(7-methyl-1,3-benzoxazol-2-yl)phenoxy]-1H-pyrazolo[3,4-b]pyridin-3-yl}piperidin-3-amine], for which the IC50 in assay [1] was greater than 10 µM; in assay [2] it was 1000 to 10000 nM; in assay [3], greater than 10 µM; in assay [4] it was greater than 10 µM.

For the molecule `Cc1csc(NC(=O)c2ccc(Oc3ccnc4[nH]nc(N[C@@H]5CCCN(C(=O)/C=C/CN(C)C6CC6)C5)c34)cc2)n1` [compound 139], the IC50 is 1 to 10 µM in assay [1], 100 to 1000 nM in assay [2], 1 to 10 µM in assay [3] and greater than 10 µM in assay [4].

`Cc1cc(NC(=O)c2cccc(Nc3ccnc4[nH]nc(O[C@@H]5CCCN(C(=O)C6CC6)C5)c34)c2)ccc1C(C)C` [compound 134, 3-[(3-{[(3R)-1-cyclopropanecarbonylpiperidin-3-yl]oxy}-1H-pyrazolo[3,4-b]pyridin-4-yl)amino]-N-[3-methyl-4-(propan-2-yl)phenyl]benzamide]: the IC50 in assay [1] is greater than 10 µM; in assay [2] it was 100 to 1000 nM; in assay [3] it was greater than 10 µM; in assay [4], 1 to 10 µM.

Turning to `CC#CC(=O)N1CCC[C@@H](Nc2n[nH]c3nccc(Oc4ccc(C(=O)Nc5cc(C(F)(F)F)ccn5)cc4)c23)C1` [compound 205, 4-[(3-{[(3R)-1-(but-2-ynoyl)piperidin-3-yl]amino}-1H-pyrazolo[3,4-b]pyridin-4-yl)oxy]-N-[4-(trifluoromethyl)pyridin-2-yl]benzamide], the IC50 in assay [1] is greater than 10 µM; in assay [2], less than 100 nM; in assay [3] it was 1 to 10 µM; in assay [4], 0.1 to 1 µM.

As to `CC#CC(=O)N1CCC[C@@H](Nc2n[nH]c3nccc(Oc4ccc(C(=O)Nc5cc(C)n(C)n5)cc4)c23)C1` [compound 185], the IC50 is greater than 10 µM in assay [1], 100 to 1000 nM in assay [2], greater than 10 µM in assay [3] and greater than 10 µM in assay [4].
